From article PMC6353875, “The EZH2 SANT1 domain is a histone reader providing sensitivity to the modification state of the H4 tail” (Scientific Reports, 2019)
“Also recorded” adds a separate entry of the source.

Legend:
[1] = biological target: T1, EZH2 SRM-SANT1 (residues 141–251) (Homo sapiens, UniProt Q15910); assay: NMR titration (1H-15N HSQC) of SRM-SANT1 with histone peptides; assay type: binding; conditions: for chemical shift perturbations (CSPs) upon peptide addition: 1H-15N HSQC overlay, 25 °C, 0.05–0.10 mM 15N-SRM-SANT1, increasing concentrations of peptide; for effect of H4K16 acetylation on interaction/binding (NMR): 1H-15N HSQC titration of SRM-SANT1 with H4K16ac(1–21)
T1 construct: All additional studies were performed with the SRM-SANT1 construct containing residues 141–251; GST (N, cleaved yes); made in house; host or cells: E. coli Rosetta2 (DE3) pLysS
Description: (§1) The complete human EZH2 cDNA was obtained from OpenBiosystems (GE Healthcare, Accession #:BC010858). EZH2 SANT1 (residues 159–251) and SRM-SANT1 (residues 141–251) were subcloned into a pDEST15 (N-terminal GST-tag) expression vector using the Gateway Recombination cloning method (Invitrogen, ThermoScientific) with a PreScission Protease cleavage site engineered between the GST-tag and the N-terminus of EZH2 SRM-SANT1. Mutants were generated in the 141–251 construct using site-directed mutagenesis (Q5 mutagenesis kit, New England Biolabs).
(§2) For purification, cell pellets were thawed on ice and lysed by emulsiflex in a lysis buffer containing 150 mM NaCl, 50 mM Tris (pH 6.5), 3 mM DTT, 0.1% Triton X-100 and DNaseI. Lysate was cleared at 18,000 g for 1 hour at 4 °C. The soluble supernatant was incubated with glutathione agarose resin (ThermoFisher Scientific) and washed extensively with a buffer containing 900 mM NaCl, 50 mM Tris (pH 6.5) and 3 mM DTT. The GST-tag was cleaved by incubation with PreScission Protease overnight and SRM-SANT1 was further purified by FPLC using […] over a Source15S column and size exclusion chromatography over a superdex 75 column. The final buffer contained 150 mM NaCl, 50 mM Tris (pH 6.5), 3 mM DTT, with or without 5 mM EDTA.
Biotinylated histone H4K16ac (1–21, AS-64847-1) was obtained from Anaspec. All histone peptides were dissolved in H2O at a concentration of 20 mM, and the pH adjusted to ~7.0. DNA oligos were obtained from IDT. The DNA was annealed by mixing equimolar amounts of single stranded oligos. DNA was heated to 95 °C for 10 minutes before allowing to cool overnight. The annealed DNA was further purified by size exclusion chromatography over a superdex 75 column in a buffer containing 150 mM NaCl, 50 mM Tris (pH 6.5), 3 mM DTT, with 5 mM EDTA. Titrations were performed by collecting ^15N-HSQC spectra on 0.05–0.10 mM ^15N-EZH2 SRM-SANT1 while titrating in increasing concentrations of the respective ligands. Titration experiments were performed at 25 °C on a Bruker Avance II 800 MHz NMR spectrometer equipped with a 5 mm triple resonance cryoprobe. Data was processed and analyzed using NMRPipe and CcpNmr[53],[54].
Kd values were determined for all individual residues with significant Δδ in each individual titration.

SRM-SANT1 = assay: Biotinylated histone peptide pulldown; assay type: binding, human; conditions: for effect of modification on SRM-SANT1 binding (pulldown): 1 μg SRM-SANT1 with 1 μg Biotin-tagged H4 peptide, overnight 4 °C, 150 mM NaCl, 50 mM Tris (pH 6.5), 3 mM DTT, streptavidin resin, coomassie, ImageJ, triplicate, vs corresponding unmodified peptide, p-value < 0.05; for effect of H4 modification on binding of SANT1 to H4 (abstract summary): summary statement in abstract
Description: as §1, §2
Biotinylated unmodified histone H4 (1–23, SKU:12-0029), unmodified H4 (11–27, SKU:12-0035), H4K16ac (1–23, SKU:12-0033), H4K20ac (1–24, SKU:12-0052) and H4K20me3 (11–27, SKU:12-0038) peptides were obtained from EpiCypher. 1 μg of purified SRM-SANT1 was incubated with 1 μg of Biotin-tagged H4 peptides unmodified or containing single modifications. Reactions were incubated overnight rocking end over end at 4 °C in a binding buffer containing 150 mM NaCl, 50 mM Tris (pH 6.5), 3 mM DTT. Streptavidin sepharose resin (25 μL of 50% slurry, GE Life Sciences) was added to each reaction and rocked end over end at 4 °C for two hours. The reactions were then spun at 2500 × g, supernatant decanted and beads washed with 500 μL of the binding buffer four times. After the final wash, beads were resuspended in 5x SDS loading dye, ran on a 4–20% gradient gel and visualized using coomassie staining. Gels were imaged using an ImageQuant LAS 4000 imager. Quantification of triplicate pull down experiments was performed using ImageJ[59].

T1 sequence (Q15910 141-251): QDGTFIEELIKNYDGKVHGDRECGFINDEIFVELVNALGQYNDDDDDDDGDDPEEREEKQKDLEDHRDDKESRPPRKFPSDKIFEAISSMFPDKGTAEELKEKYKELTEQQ

| Substance | effect of H4 modification on binding of SANT1 to H4 (abstract summary) (SRM-SANT1) | chemical shift perturbations (CSPs) upon peptide addition [1] | effect of modification on SRM-SANT1 binding (pulldown) (SRM-SANT1) | further results |
| --- | --- | --- | --- | --- |
| H4(1–10): unmodified histone H4 (1–10), custom synthesized by GenScript (SGRGKGGKGL) |  | very minor CSPs throughout SANT1, indicative of non-specific interactions |  |  |
| H4(11–21): unmodified histone H4 (11–21), custom synthesized by GenScript |  | confirms binding to the basic patch of H4; also recorded: very similar CSPs as was observed for H4(1–21) |  | fold weaker binding (Kd) than H4 tail (1–21) ([1]; ratio of Kd to that of H4 (1–21)): ~ 2 x |
| H4K16ac(1–21): Biotinylated histone H4K16ac (1–21, AS-64847-1), obtained from Anaspec; NMR titration |  |  |  | effect of H4K16 acetylation on interaction/binding (NMR) [1]: abrogates binding; effect of H4K16 acetylation on interaction/binding (NMR) ([1]; listed as H4K16ac peptide): substantially abrogates interaction with the H4 tail |

Further lines, with some results ahead:

| effect of H4 modification on binding of SANT1 to H4 (abstract summary) (SRM-SANT1) | Substance | chemical shift perturbations (CSPs) upon peptide addition [1] | effect of modification on SRM-SANT1 binding (pulldown) (SRM-SANT1) | further results |
| --- | --- | --- | --- | --- |
| abrogate binding of SANT1 to H4 | H4K16ac: H4K16ac (1–23, SKU:12-0033), biotinylated peptide from EpiCypher; pulldown |  | significant decreases in SRM-SANT1 binding |  |
| abrogate binding of SANT1 to H4 | H4K20ac: H4K20ac (1–24, SKU:12-0052), biotinylated peptide from EpiCypher |  | decreased binding, though not statistically significantly |  |
| abrogate binding of SANT1 to H4 | H4K20me3: H4K20me3 (11–27, SKU:12-0038), biotinylated peptide from EpiCypher |  | significant decreases in SRM-SANT1 binding |  |
